Key:
Format in all cases: in vivo
[1] = test system: wheat (Triticum aestivum); assay: Test A postemergence; conditions: Triticum aestivum, post-emergence, 240 h, Postemergence, read-out: Wheat plant response rating (0 to 100 scale)
Outline: (§1)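 Seeds sprayed preemergence with a directed soil spray, or plants at 2 to 10 cm height and one- to two-leaf stage sprayed postemergence, with test chemicals in a non-phytotoxic solvent mixture containing surfactant, in loam soil–sand blend. Injury rated visually against untreated controls after about 10 d in greenhouse, 0 (no effect) to 100 (complete control).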

[2] = test system: ragweed (common ragweed, Ambrosia elatior); assay: Test A postemergence; conditions: Ambrosia artemisiifolia, post-emergence, 240 h, Postemergence, read-out: Ragweed plant response rating (0 to 100 scale)
Outline: as §1

[3] = test system: giant foxtail (Setaria faberii); assay: Test A postemergence; conditions: Setaria faberi, post-emergence, 240 h, Postemergence, read-out: Foxtail, Giant plant response rating (0 to 100 scale)
Outline: as §1

Kochia (Kochia scoparia) [4] = assay: Test A postemergence; conditions: Bassia scoparia, post-emergence, 240 h, Postemergence, read-out: Kochia plant response rating (0 to 100 scale)
Outline: as §1

corn (Zea mays) = assay: Test A postemergence; conditions: Zea mays, post-emergence, 240 h, Postemergence, read-out: Corn plant response rating (0 to 100 scale)
Outline: as §1

[5] = test system: ryegrass, Italian (Italian ryegrass, Lolium multiflorum); assay: Test A postemergence; conditions: Lolium multiflorum, post-emergence, 240 h, Postemergence, read-out: Ryegrass, Italian plant response rating (0 to 100 scale)
Outline: as §1

[6] = test system: blackgrass (Alopecurus myosuroides); assay: Test A postemergence; conditions: Alopecurus myosuroides, post-emergence, 240 h, Postemergence, read-out: Blackgrass plant response rating (0 to 100 scale)
Outline: as §1

[7] = test system: Galium (catchweed bedstraw, Galium aparine); assay: Test A postemergence; conditions: Galium, post-emergence, 240 h, Postemergence, read-out: Galium plant response rating (0 to 100 scale)
Outline: as §1

[8] = test system: pigweed (Amaranthus retroflexus); assay: Test A postemergence; conditions: Amaranthus retroflexus, post-emergence, 240 h, Postemergence, read-out: Pigweed plant response rating (0 to 100 scale)
Outline: as §1

[9] = test system: barnyardgrass (Echinochloa crus-galli); assay: Test A postemergence; conditions: Echinochloa crus-galli, post-emergence, 240 h, Postemergence
Outline: as §1

[10] = test system: ragweed (common ragweed, Ambrosia elatior); assay: Test A preemergence; conditions: Ambrosia artemisiifolia, pre-emergence, 240 h, 0 to 100 scale where 0 is no effect and 100 is complete control, read-out: Ragweed plant response rating
Outline: as §1

[11] = test system: giant foxtail (Setaria faberii); assay: Test A preemergence; conditions: Setaria faberi, pre-emergence, 240 h, 0 to 100 scale where 0 is no effect and 100 is complete control, read-out: Foxtail, Giant plant response rating
Outline: as §1

Kochia (Kochia scoparia) [12] = assay: Test A preemergence; conditions: Bassia scoparia, pre-emergence, 240 h, 0 to 100 scale where 0 is no effect and 100 is complete control, read-out: Kochia plant response rating
Outline: as §1

[13] = test system: ryegrass, Italian (Italian ryegrass, Lolium multiflorum); assay: Test A preemergence; conditions: Lolium multiflorum, pre-emergence, 240 h, 0 to 100 scale where 0 is no effect and 100 is complete control, read-out: Ryegrass, Italian plant response rating
Outline: as §1

[14] = test system: pigweed (Amaranthus retroflexus); assay: Test A preemergence; conditions: Amaranthus retroflexus, pre-emergence, 240 h, 0 to 100 scale where 0 is no effect and 100 is complete control, read-out: Pigweed plant response rating
[15] = test system: barnyardgrass (Echinochloa crus-galli); assay: Test A preemergence; conditions: Echinochloa crus-galli, pre-emergence, 240 h, 0 to 100 scale where 0 is no effect and 100 is complete control, read-out: Barnyardgrass plant response rating
Outline: as §1

[16] = test system: sedge, umbrella (small-flower umbrella sedge, Cyperus difformis); assay: Test B flooded paddy test; conditions: Cyperus difformis, 250 g ai/ha, Flood; 0 to 100 scale where 0 is no effect and 100 is complete control; read-out: Sedge, Umbrella plant response rating
Outline: (§2)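 Plants at 2-leaf stage flooded to 3 cm above soil, with compounds applied directly to paddy water and that depth maintained. Plants kept in greenhouse 13–15 d. Visual rating versus controls on a 0 (no effect) to 100 (complete control) scale.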

[17] = test system: ducksalad (Heteranthera limosa); assay: Test B flooded paddy test; conditions: Heteranthera limosa, 250 g ai/ha, Flood; 0 to 100 scale where 0 is no effect and 100 is complete control; read-out: Ducksalad plant response rating
Outline: as §2

rice (Oryra sativa) = assay: Test B flooded paddy test; conditions: Oryza sativa, 250 g ai/ha, Flood; 0 to 100 scale where 0 is no effect and 100 is complete control; read-out: Rice plant response rating
Outline: as §2

[18] = test system: barnyardgrass (Echinochloa crus-galli); assay: Test B flooded paddy test; conditions: Echinochloa crus-galli, 250 g ai/ha, Flood; 0 to 100 scale where 0 is no effect and 100 is complete control; read-out: Barnyardgrass plant response rating
Outline: as §2

[19] = 125 g ai/ha, visual rating about 10 d after treatment
[20] = 31 g ai/ha, 0 is no effect, 100 is complete control
[21] = 125 g ai/ha, preemergence, visual injury rating, approximately 10 d

In the case of CN1C[C@H](c2csc3c2CCCC3)[C@@H](C(=O)Nc2ccccc2F)C1=O [Compound 1275], the plant injury at 125 g/ha [1, 19] was 0%, the plant injury at 31 g/ha [1, 20] was 0% and the pest or weed control at 125 g/ha [2, 19] was 0%. The pest or weed control at 31 g/ha [2, 20] was 0%, the pest or weed control at 125 g/ha [3, 19] was 70% and the pest or weed control at 31 g/ha [3, 20] was 20%. For the same compound, the pest or weed control at 125 g/ha (Kochia (Kochia scoparia) [4]; [19]) was 0%, the pest or weed control at 31 g/ha (Kochia (Kochia scoparia) [4]; [20]) was 0% and the plant injury at 125 g/ha (corn (Zea mays); [19]) was 0%. For the same compound, the plant injury at 31 g/ha (corn (Zea mays); [20]) was 0%, the pest or weed control at 125 g/ha [5, 19] was 0% and the pest or weed control at 31 g/ha [5, 20] was 0%. For the same compound, the pest or weed control at 125 g/ha [6, 19] was 0%, the pest or weed control at 31 g/ha [6, 20] was 0% and the pest or weed control at 125 g/ha [7, 19] was 0%. For the same compound, the pest or weed control at 31 g/ha [7, 20] was 0%, the pest or weed control at 125 g/ha [8, 19] was 0% and the pest or weed control at 31 g/ha [8, 20] was 0%. For the same compound, the pest or weed control at 125 g/ha ([9]; 125 g ai/ha, visual rating about 10 d after treatment, read-out: Barnyardgrass plant response rating (0 to 100 scale, 0 no effect, 100 complete control)) was 90%, the pest or weed control at 31 g/ha ([9]; 31 g ai/ha, 0 is no effect, 100 is complete control, read-out: Barnyardgrass plant response rating (0 to 100 scale)) was 30% and the pest or weed control at 31 g/ha ([10]; 31 g ai/ha, Preemergence) was 0%. The pest or weed control at 125 g/ha [10, 21] was 20%, the pest or weed control at 31 g/ha ([11]; 31 g ai/ha, Preemergence) was 90% and the pest or weed control at 125 g/ha [11, 21] was 100%. It also gave a pest or weed control at 31 g/ha (Kochia (Kochia scoparia) [12]; 31 g ai/ha, Preemergence) of 0%, a pest or weed control at 125 g/ha (Kochia (Kochia scoparia) [12]; [21]) of 20% and a pest or weed control at 31 g/ha ([13]; 31 g ai/ha, Preemergence) of 0%. It also gave a pest or weed control at 125 g/ha [13, 21] of 0%, a pest or weed control at 31 g/ha ([14]; 31 g ai/ha, Preemergence) of 0% and a pest or weed control at 125 g/ha [14, 21] of 0%. For the same compound, the pest or weed control at 31 g/ha ([15]; 31 g ai/ha, Preemergence) was 70%, the pest or weed control at 125 g/ha [15, 21] was 100% and the pest or weed control at 250 g/ha [16] was 0%. For the same compound, the pest or weed control at 250 g/ha [17] was 90%, the pest or weed control at 250 g/ha (rice (Oryra sativa)) was 20% and the pest or weed control at 250 g/ha [18] was 75%.

Source: patent publication US12077503B2, “Substituted cyclic amides and their use as herbicides” (FMC CORPORATION, priority 2015, dated 2024)
